Laboratory results as given in the NIST ThermoML archive (doi:10.1016/j.jct.2012.01.013).

Experiment: xn = mol fraction of the nth substance listed
Conditions: 101 kPa, Liquid; for viscosity: Falling or rolling sphere viscometry; for mass density: Vibrating tube method

CC(=O)[O-].Cn1cc[nH+]c1 [1-methylimidazolium acetate] + CCCCO
Conditions	mass density, 293.15 K [kg/m3]	mass density, 298.15 K [kg/m3]	mass density, 303.15 K [kg/m3]	mass density, 308.15 K [kg/m3]	mass density, 313.15 K [kg/m3]	viscosity, 293.15 K [mPa·s]	viscosity, 298.15 K [mPa·s]	viscosity, 303.15 K [mPa·s]	viscosity, 308.15 K [mPa·s]	viscosity, 313.15 K [mPa·s]
x1 = 0.0506	828.66	824.7	820.7	816.68	812.62	–	2.579	2.208	1.956	1.741
x1 = 0.1008	847.12	843.04	838.93	834.78	830.61	2.905	2.607	2.251	1.997	1.781
x1 = 0.1979	880.83	876.62	872.36	868.1	863.78	3.194	2.829	2.462	2.182	1.944
x1 = 0.2995	913.82	909.53	905.18	900.8	896.49	3.551	3.124	2.731	2.419	2.15
x1 = 0.4002	943.73	939.37	934.99	930.59	926.17	3.934	3.431	3.011	2.661	2.367
x1 = 0.4999	970.97	966.57	962.15	957.72	953.27	4.413	3.813	3.334	2.922	2.606
x1 = 0.6505	1008.21	1003.78	999.34	994.88	990.41	5.321	4.556	3.936	3.447	3.056
x1 = 0.7977	1040.65	1036.22	1031.77	1027.33	1022.9	6.49	5.533	4.739	4.068	3.538
x1 = 0.9013	1061.34	1056.91	1052.46	1048.01	1043.57	7.367	6.225	5.314	4.553	3.944

CC(=O)[O-].Cn1cc[nH+]c1 [1-methylimidazolium acetate] + CCCO
Conditions	mass density, 293.15 K [kg/m3]	mass density, 298.15 K [kg/m3]	mass density, 303.15 K [kg/m3]	mass density, 308.15 K [kg/m3]	mass density, 313.15 K [kg/m3]	viscosity, 293.15 K [mPa·s]	viscosity, 298.15 K [mPa·s]	viscosity, 303.15 K [mPa·s]	viscosity, 308.15 K [mPa·s]	viscosity, 313.15 K [mPa·s]
x1 = 0.0504	827.73	823.56	819.35	815.11	810.83	2.22	1.974	1.753	1.566	1.402
x1 = 0.0999	850.08	845.8	841.47	837.11	832.72	2.359	2.088	1.855	1.656	1.485
x1 = 0.2005	891.09	886.69	882.25	877.78	873.27	2.757	2.429	2.152	1.918	1.718
x1 = 0.3005	926.35	921.89	917.41	912.89	908.35	3.202	2.795	2.481	2.206	1.973
x1 = 0.4013	957.27	952.8	948.29	943.76	939.2	3.698	3.231	2.851	2.517	2.25
x1 = 0.5014	984.26	979.77	975.25	970.72	966.17	4.234	3.682	3.228	2.852	2.536
x1 = 0.6501	1018.37	1013.89	1009.37	1004.85	1000.32	5.113	4.402	3.835	3.363	2.975
x1 = 0.7946	1046.51	1042.04	1037.55	1033.05	1028.55	6.141	5.212	4.517	3.947	3.482
x1 = 0.8952	1063.47	1059.02	1054.56	1050.08	1045.6	7.087	6.009	5.148	4.447	3.905

CC(=O)[O-].Cn1cc[nH+]c1 [1-methylimidazolium acetate] + CCO
Conditions	mass density, 293.15 K [kg/m3]	mass density, 298.15 K [kg/m3]	mass density, 303.15 K [kg/m3]	mass density, 308.15 K [kg/m3]	mass density, 313.15 K [kg/m3]	viscosity, 293.15 K [mPa·s]	viscosity, 298.15 K [mPa·s]	viscosity, 303.15 K [mPa·s]	viscosity, 308.15 K [mPa·s]	viscosity, 313.15 K [mPa·s]
x1 = 0.0495	823.45	819.02	814.55	810.04	805.49	1.366	1.236	1.123	1.024	0.938
x1 = 0.0964	851.37	846.85	842.29	837.69	833.06	1.578	1.421	1.268	1.153	1.052
x1 = 0.2004	902.14	897.55	892.91	888.25	883.55	1.995	1.789	1.612	1.458	1.325
x1 = 0.2986	940.21	935.59	930.94	926.27	921.57	2.485	2.212	1.981	1.784	1.614
x1 = 0.401	972.28	967.67	963.03	958.37	953.69	3.048	2.695	2.399	2.148	1.935
x1 = 0.4973	997.47	992.88	988.27	983.64	978.99	3.642	3.199	2.833	2.524	2.264
x1 = 0.6499	1029.38	1024.83	1020.26	1015.69	1011.1	4.686	4.061	3.576	3.146	2.798
x1 = 0.8003	1053.98	1049.49	1044.97	1040.45	1035.92	5.85	5.024	4.363	3.826	3.384
x1 = 0.8941	1066.93	1062.47	1057.99	1053.51	1049.01	6.855	5.847	5.04	4.357	3.829

CC(=O)[O-].Cn1cc[nH+]c1 [1-methylimidazolium acetate] + CO
Conditions	mass density, 293.15 K [kg/m3]	mass density, 298.15 K [kg/m3]	mass density, 303.15 K [kg/m3]	mass density, 308.15 K [kg/m3]	mass density, 313.15 K [kg/m3]	viscosity, 293.15 K [mPa·s]	viscosity, 298.15 K [mPa·s]	viscosity, 303.15 K [mPa·s]	viscosity, 308.15 K [mPa·s]	viscosity, 313.15 K [mPa·s]
x1 = 0.05	841.99	837.15	832.29	827.39	822.47	0.818	0.758	0.704	0.657	0.615
x1 = 0.1008	880.4	875.53	870.63	865.7	860.74	1.049	0.964	0.889	0.822	0.763
x1 = 0.1994	936.43	931.59	926.72	921.83	916.92	1.568	1.424	1.317	1.189	1.093
x1 = 0.2997	974.67	969.87	965.05	960.22	955.37	2.134	1.936	1.747	1.585	1.445
x1 = 0.4	1002.67	997.94	993.18	988.42	983.63	2.806	2.428	2.193	1.991	1.822
x1 = 0.4979	1023.14	1018.47	1013.77	1009.07	1004.35	3.486	2.986	2.672	2.399	2.195
x1 = 0.651	1046.77	1042.19	1037.58	1032.97	1028.34	4.706	4.006	3.541	3.133	2.81
x1 = 0.8011	1063.57	1059.06	1054.54	1050	1045.45	6.119	5.207	4.509	3.927	3.454
x1 = 0.9012	1072.29	1067.83	–	1058.86	1054.36	7.161	6.065	5.2	4.485	3.912

CC(=O)[O-].Cn1cc[nH+]c1 [1-methylimidazolium acetate] + O
Conditions	mass density, 293.15 K [kg/m3]	mass density, 298.15 K [kg/m3]	mass density, 303.15 K [kg/m3]	mass density, 308.15 K [kg/m3]	mass density, 313.15 K [kg/m3]	viscosity, 293.15 K [mPa·s]	viscosity, 298.15 K [mPa·s]	viscosity, 303.15 K [mPa·s]	viscosity, 308.15 K [mPa·s]	viscosity, 313.15 K [mPa·s]
x1 = 0.0496	1050.26	1047.88	1045.35	1042.68	1039.87	2.361	2.05	1.797	1.59	1.419
x1 = 0.0999	1080.12	1076.77	1073.32	1069.76	1066.09	4.352	3.682	3.154	2.73	2.363
x1 = 0.2007	1099.43	1095.11	1090.72	1086.27	1081.75	8.567	7.087	5.755	4.731	4.082
x1 = 0.2985	1099.75	1095.2	1090.61	1085.97	1081.29	11.17	9.095	7.498	6.239	5.265
x1 = 0.3986	1096.26	1091.68	1087.07	1082.42	1077.74	11.62	9.434	7.776	6.521	5.535
x1 = 0.496	1092.17	1087.6	1083	1078.38	1073.73	11.27	9.212	7.655	6.419	5.459
x1 = 0.6467	1087.46	1082.93	1078.39	1073.83	1069.26	10.44	8.538	7.137	6.085	5.234
x1 = 0.7954	1083.49	1079.01	1074.5	1069.99	1065.48	9.391	7.858	6.641	5.663	4.895
x1 = 0.8987	1081.48	1077.03	1072.55	1068.08	1063.6	8.655	7.299	6.193	5.304	4.584
